Test systems include 786-0 renal; BT-549 breast; CAKI-1 renal; COLO 205 colon; HCC-2998 colon; HCT-15 colon; KM12 colon; MOLT-4 leukemia; PC-3 prostate; RPMI-8226 leukemia; SK-MEL-2 melanoma; SNB-19 CNS; A498 renal; ACHN renal; HS 578T breast; LOX IMVI melanoma; OVCAR-4 ovarian; SK-MEL-28 melanoma; NCI-H226 lung; SNB-75 CNS.
What all share (assay): NCI anticancer screen, dose series, 48 h

Eight compounds from PubChem BioAssay (NCI) can be followed below.

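In this assay, cells in 96-well plates receive the compound at five concentrations for 48 hours. Endpoints are linearly interpolated between the surrounding concentrations. TGI marks complete inhibition of growth.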 Where only a bound is given, the exact number is not on record here.

Turning to `NNC(=O)c1n[nH]nc1C(=O)NN`, the TGI with 786-0 renal is 28.8 µM; in the test with BT-549 breast it was 29.3 µM; with CAKI-1 renal it was 32.6 µM; in the test on COLO 205 colon it was > 100 µM; in the test on HCC-2998 colon, > 100 µM; with HCT-15 colon, > 100 µM. The TGI with KM12 colon, with MOLT-4 leukemia, in the test on PC-3 prostate, with RPMI-8226 leukemia, in the test with SK-MEL-2 melanoma and with SNB-19 CNS was > 100 µM in each case.
As to `O=c1c(/C=C/c2c(O)ccc3ccccc23)nnc2sc(-c3cccc(Br)c3)nn12`, the TGI in the test with 786-0 renal is > 100 µM; with A498 renal it was > 100 µM; with ACHN renal it was > 100 µM; in the test on BT-549 breast, 56.7 µM; in the test with CAKI-1 renal, 56.8 µM; in the test with COLO 205 colon it was > 100 µM. For the same compound, the TGI in the test with HCC-2998 colon was 89 µM; with HCT-15 colon, 64.7 µM; in the test on HS 578T breast it was > 100 µM; in the test on KM12 colon, 63.6 µM; in the test with LOX IMVI melanoma it was 26.9 µM; in the test with MOLT-4 leukemia, 40.3 µM. Besides, the TGI was 31.9 µM with OVCAR-4 ovarian; > 100 µM in the test on PC-3 prostate; > 100 µM with RPMI-8226 leukemia; > 100 µM with SK-MEL-2 melanoma; > 100 µM in the test on SK-MEL-28 melanoma; > 100 µM in the test on SNB-19 CNS.
For `CCCCNC(=S)Nc1nc(C(=O)NNC(=S)Nc2ccccc2)cs1`, the TGI is > 100 µM in the test on 786-0 renal; 68 µM in the test with A498 renal; > 100 µM in the test on ACHN renal; > 100 µM in the test on BT-549 breast; > 100 µM with CAKI-1 renal; > 100 µM in the test with COLO 205 colon. Moreover, the TGI with HCC-2998 colon, with HCT-15 colon, with KM12 colon, in the test on MOLT-4 leukemia, in the test on NCI-H226 lung and with OVCAR-4 ovarian was > 100 µM throughout. Moreover, the TGI with PC-3 prostate was > 100 µM; in the test with RPMI-8226 leukemia it was > 100 µM; in the test with SK-MEL-2 melanoma, > 100 µM; in the test with SNB-19 CNS, > 100 µM; in the test with SNB-75 CNS, 91.1 µM.
Consider `O=C(O)C(NCc1ccccc1)C(NCc1ccccc1)C(=O)O` (stereo not given), for which the TGI in the test with 786-0 renal, in the test on A498 renal, in the test on ACHN renal, with BT-549 breast, in the test on CAKI-1 renal and with COLO 205 colon was > 100 µM in each case. Also, the TGI with HCC-2998 colon, in the test on HCT-15 colon, with HS 578T breast, in the test on KM12 colon, with LOX IMVI melanoma and with MOLT-4 leukemia was > 100 µM each time. The TGI in the test with NCI-H226 lung, with OVCAR-4 ovarian, in the test with RPMI-8226 leukemia, with SK-MEL-2 melanoma, with SK-MEL-28 melanoma and in the test on SNB-19 CNS was > 100 µM each time. In the test with SNB-75 CNS, the TGI is > 100 µM.
Consider `O=C(/C=C/c1cc2ccccc2o1)N1CCN(c2ccccn2)CC1`, for which the TGI in the test with 786-0 renal, with A498 renal, in the test with BT-549 breast, in the test on CAKI-1 renal, with COLO 205 colon and in the test on HCC-2998 colon was > 100 µM in each case. The TGI in the test with HCT-15 colon, with HS 578T breast, in the test with KM12 colon, in the test with LOX IMVI melanoma, with MOLT-4 leukemia and in the test with OVCAR-4 ovarian was > 100 µM throughout. In addition, the TGI in the test with PC-3 prostate, with RPMI-8226 leukemia, in the test on SK-MEL-2 melanoma, in the test with SK-MEL-28 melanoma and in the test on SNB-19 CNS was > 100 µM in each case.
In the case of `COC(=O)c1cc2ccc(N)nc2[nH]c1=O`, the TGI in the test with 786-0 renal, with A498 renal, in the test with ACHN renal, with BT-549 breast, in the test with CAKI-1 renal and with COLO 205 colon was > 100 µM in each case. Moreover, the TGI in the test with HCC-2998 colon, in the test with HCT-15 colon, in the test on KM12 colon, in the test on LOX IMVI melanoma, with NCI-H226 lung and with OVCAR-4 ovarian was > 100 µM in each case. The TGI in the test with PC-3 prostate, in the test on RPMI-8226 leukemia, in the test with SK-MEL-2 melanoma, with SK-MEL-28 melanoma, with SNB-19 CNS and in the test with SNB-75 CNS was > 100 µM in each case.
As for `O=[N+]([O-])c1ccc2c(c1)C1=C(CO2)Cc2ccccc2O1`, the TGI in the test on 786-0 renal is 39.9 µM; in the test on A498 renal it was > 100 µM; with ACHN renal, 29.9 µM; in the test on BT-549 breast it was 61.9 µM; with CAKI-1 renal, 31.4 µM; in the test with COLO 205 colon, 30.6 µM. The TGI in the test on HCC-2998 colon was 35.3 µM; with HCT-15 colon, 31.2 µM; in the test with KM12 colon, 39.3 µM; with LOX IMVI melanoma, 30.2 µM; in the test with NCI-H226 lung it was > 100 µM; in the test with OVCAR-4 ovarian, > 100 µM. Further, the TGI is 38.6 µM in the test on PC-3 prostate, > 100 µM with RPMI-8226 leukemia, > 100 µM in the test on SK-MEL-2 melanoma and > 100 µM in the test with SNB-75 CNS.
Consider `COc1cc2c(C)cc(O)cc2c2cc(O)c(C)cc12`, for which the TGI in the test with 786-0 renal was found to be 17.7 µM; in the test on A498 renal, 21.3 µM; with ACHN renal, 22.6 µM; in the test with BT-549 breast it was 23 µM; in the test with CAKI-1 renal, 22.4 µM; with COLO 205 colon, 19.6 µM. Further, the TGI with HCC-2998 colon is 24.4 µM; with HCT-15 colon it was 17.9 µM; with HS 578T breast, 53.8 µM; in the test on KM12 colon, 20.2 µM; in the test on LOX IMVI melanoma it was 9.22 µM; in the test with MOLT-4 leukemia, 25.1 µM. Also, the TGI in the test on NCI-H226 lung was 28.2 µM; with OVCAR-4 ovarian, 21.9 µM; with PC-3 prostate, 19 µM; in the test on RPMI-8226 leukemia it was 6.64 µM; in the test on SK-MEL-2 melanoma, 31.3 µM; in the test on SNB-19 CNS it was 21.4 µM.
